From ChEMBL document CHEMBL1201862, “PubChem BioAssay data set” (2004)
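1) Cells in 96-well plates. 2) Compound, 48 h, 5 concentrations. 3) Linear interpolation between surrounding doses. 4) Unreached endpoint = highest concentration. GI50 marks 50% less growth.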 Active and inactive are the calls of the source. No stated cut-off is given here; in the data, active = GI50 up to about 1.1 µM and inactive = higher.

Experiments:
Assay in all cases: DTP human tumour cell line panel, 48 h
BT-549 = test system: BT-549
DMS-273 = test system: DMS-273
HOP-18 = test system: HOP-18
KM-20L2 = test system: KM-20L2
MDA-N = test system: MDA-N
T47D = test system: T47D
MDA-MB-435 = test system: MDA-MB-435
DMS-114 = test system: DMS-114
RXF 631 = test system: RXF 631

Measured: GI50

Cc1c(-c2ccc(-c3ccccc3F)cc2)nc2ccc(F)cc2c1C(=O)O [BREQUINAR SODIUM]
active: DMS-273 0.193 µM | KM-20L2 0.615 µM | MDA-N 0.631 µM
inactive: BT-549 155 µM | HOP-18 46.1 µM | T47D 16.9 µM

Nc1nc(=O)c(/N=N/c2ccc([As](=O)(O)O)cc2)c(N)[nH]1
inactive: BT-549 > 100 µM | MDA-MB-435 > 100 µM | MDA-N > 100 µM | T47D > 100 µM

COc1ccc2c(c1)c1c(n2CCN2CCOCC2)-c2ccccc2CC1
inactive: BT-549 > 100 µM | MDA-MB-435 34 µM | MDA-N 32.2 µM | T47D 39.5 µM

Cc1cccc2c1Oc1cc(Cl)ccc1C2NC(=O)CN(C)C (stereo unspecified)
inactive: DMS-114 34.9 µM | DMS-273 28.8 µM | KM-20L2 20 µM

O=C1C(C(O)(C(F)(F)Cl)C(F)(F)Cl)CCCC1C(O)(C(F)(F)Cl)C(F)(F)Cl (stereo unspecified)
inactive: BT-549 > 10 µM | MDA-MB-435 > 10 µM | MDA-N > 10 µM | T47D > 10 µM

C=C1CC(OC)(C(O)C(=O)N[C@H]2OCO[C@H]3C2O[C@H](C[C@H](O)COC)C(C)(C)C3OC)O[C@H](C)[C@@H]1C (stereo partly specified)
active: DMS-114 < 0.00773 µM | DMS-273 < 0.00773 µM | HOP-18 < 0.00773 µM | KM-20L2 < 0.00773 µM

O=c1oc2ccc(Cl)cc2cc1-c1cn2cc(Cl)ccc2n1
inactive: BT-549 15.1 µM | T47D > 100 µM
active: MDA-MB-435 0.24 µM | MDA-N 0.368 µM

O=P1(Oc2ccc(Cl)cc2Cl)Oc2cc3ccccc3cc2O1
inactive: DMS-114 27.5 µM | DMS-273 59.6 µM | HOP-18 62.2 µM | KM-20L2 > 100 µM

O=c1[nH]cc(COCC(F)(F)C(F)(F)C(F)(F)C(F)F)c(=O)[nH]1
inactive: DMS-114 > 100 µM | HOP-18 > 100 µM | KM-20L2 > 100 µM

CC(=O)N(C(C)=O)n1c(Cc2ccc(C)cc2)nn(C(C)=O)c1=O
inactive: BT-549 > 100 µM | MDA-MB-435 > 100 µM | MDA-N > 100 µM | T47D > 100 µM

CC1CC2=C(C1)C(C1(C)C(=O)CC3C(C1=O)C3(C)C)C(C)C2=O (stereo unspecified)
inactive: BT-549 > 100 µM | MDA-MB-435 > 100 µM | MDA-N > 100 µM | T47D > 100 µM

C[n+]1ccn2c3nc4ccccc4nc3c([O-])c(C#N)c21
inactive: BT-549 > 100 µM | DMS-114 > 100 µM | DMS-273 > 100 µM | HOP-18 84.7 µM | MDA-MB-435 > 100 µM | MDA-N > 100 µM | T47D > 100 µM

O=C1N/C(=N/N=C/C(O)C(O)C(O)CO)N/C1=C\c1ccco1 (stereo unspecified)
inactive: BT-549 > 100 µM | MDA-MB-435 > 100 µM | MDA-N > 100 µM | T47D > 100 µM

CCOC(=O)NNC(=O)NCc1cccc(CNC(=O)NNC(=O)OCC)c1
inactive: BT-549 > 100 µM | MDA-MB-435 > 100 µM | MDA-N > 100 µM | T47D > 100 µM

CCC(COC(=O)CC[C@@H](NC(=O)C(C)NC(=O)C(C)OC1C(O)C(CO)OC(OCc2ccccc2)C1NC(C)=O)C(N)=O)NC1c2ccccc2Nc2cccc([N+](=O)[O-])c21 (stereo partly specified)
inactive: DMS-114 > 100 µM | DMS-273 > 100 µM | HOP-18 69.2 µM | KM-20L2 > 100 µM

O=C(CCc1nnc(S)[nH]1)Nc1cccc(C(F)(F)F)c1
inactive: DMS-114 > 100 µM | DMS-273 > 100 µM | HOP-18 > 100 µM | KM-20L2 > 100 µM

CC1=CC(=O)c2ccc(C)cc2C1=O [CHIMAPHILIN]
inactive: BT-549 11.6 µM | MDA-MB-435 2.49 µM | T47D 2.91 µM
active: MDA-N 0.394 µM

CCN(CC)CCCNc1n[n+]([O-])c2ccccc2[n+]1[O-]
inactive: BT-549 17.3 µM | MDA-MB-435 38.4 µM | MDA-N 11.9 µM | T47D 14.3 µM

CC(O)/C=C/C(CCC(C)CO)C(C)C (stereo unspecified)
inactive: DMS-114 > 100 µM | DMS-273 > 100 µM | RXF 631 > 100 µM

CN(C)c1ccc(/C=C/C(=O)O)cc1
inactive: DMS-114 > 100 µM | HOP-18 > 100 µM | KM-20L2 > 100 µM

CCCCC#C[I+]c1ccccc1
inactive: DMS-273 14.1 µM | HOP-18 14.5 µM | KM-20L2 18.3 µM | RXF 631 9.71 µM

O=C1C(Cl)N(c2cccc([N+](=O)[O-])c2)C1c1c[nH]c2ccccc12 (stereo unspecified)
inactive: DMS-114 15.1 µM | KM-20L2 19.9 µM

O=C1NP23(OCCO2)Oc2ccccc2C3(C(F)(F)F)O1 (stereo unspecified)
inactive: DMS-114 > 100 µM | DMS-273 > 100 µM | HOP-18 > 100 µM

COC(=O)Cn1c(=O)oc2nc(-c3ccccc3)cc(C(F)(F)F)c21
inactive: BT-549 > 100 µM | MDA-MB-435 49.4 µM | MDA-N > 100 µM | T47D > 100 µM

CCOC(=O)c1ccc(/N=C2\SC(=S)N(c3ccc(F)cc3)\C2=N/c2ccc(C(=O)OCC)cc2)cc1
inactive: BT-549 12.6 µM | MDA-MB-435 17.9 µM | MDA-N 12.9 µM | T47D 5.19 µM

COC(=O)C12CC(c3ccccc31)C1C(=O)OC(=O)C12 (stereo unspecified)
inactive: DMS-114 > 100 µM | DMS-273 > 100 µM | KM-20L2 > 100 µM
